{"source": "patent US20090239271A1", "about": "“FERMENTATION BROTH EXTRACTION OF K-252A” (ABBOTT LABORATORIES, priority 2005, published 2009)", "assay": "solubility of K-252a in various solvents at 22° C.", "assay_type": "physicochemical"}
{"smiles": "COC(=O)[C@@]1(O)C[C@H]2O[C@]1(C)n1c3ccccc3c3c4c(c5c6ccccc6n2c5c31)C(=O)NC4", "note": "[K-252a, methyl (1R,2S,4R)-2,4-(6,7,12,13-tetrahydro-5H-indolo[2,3-a]pyrrolo[3,4-c]carbazol-5-onediyl)-1-hydroxy-2-methyltetrahydrofuran carboxylate]", "values": [{"measurement": "Solubility", "setting": "solvent 1% water/acetone", "result": 9.36, "unit": "mg K-252a/g solvent"}, {"measurement": "Solubility", "setting": "solvent 5% acetone/methanol", "result": 0.90, "unit": "mg K-252a/g solvent"}, {"measurement": "Solubility", "setting": "solvent 10% MTHF/methanol", "result": 1.20, "unit": "mg K-252a/g solvent"}, {"measurement": "Solubility", "setting": "solvent 10% acetone/methanol", "result": 1.22, "unit": "mg K-252a/g solvent"}, {"measurement": "Solubility", "setting": "solvent 10% water/MTHF (kinetic)", "result": 104.07, "unit": "mg K-252a/g solvent"}, {"measurement": "Solubility", "setting": "solvent 10% water/MTHF (thermodynamic)", "result": 31.97, "unit": "mg K-252a/g solvent"}, {"measurement": "Solubility", "setting": "solvent 10% water/acetone", "result": 18.25, "unit": "mg K-252a/g solvent"}, {"measurement": "Solubility", "setting": "solvent 10% water/methanol", "result": 0.54, "unit": "mg K-252a/g solvent"}, {"measurement": "Solubility", "setting": "solvent 20% water/acetone", "result": 17.78, "unit": "mg K-252a/g solvent"}, {"measurement": "Solubility", "setting": "solvent 20% water/methyl acetate", "result": ">17.7", "unit": "mg K-252a/g solvent"}, {"measurement": "Solubility", "setting": "solvent 30% water/acetone", "result": 12.40, "unit": "mg K-252a/g solvent"}, {"measurement": "Solubility", "setting": "solvent 50% acetone/methanol", "result": 7.93, "unit": "mg K-252a/g solvent"}, {"measurement": "Solubility", "setting": "solvent 75% acetone/methanol", "result": 18.59, "unit": "mg K-252a/g solvent"}, {"measurement": "Solubility", "setting": "solvent MTHF", "result": 27.99, "unit": "mg K-252a/g solvent"}, {"measurement": "Solubility", "setting": "solvent acetone", "result": 7.99, "unit": "mg K-252a/g solvent"}, {"measurement": "Solubility", "setting": "solvent methanol", "result": 0.72, "unit": "mg K-252a/g solvent"}, {"measurement": "Solubility", "setting": "solvent methyl acetate", "result": ">11.7", "unit": "mg K-252a/g solvent"}]}
